Measurements: publication PMC11541513, “Inhibitory Effects of Mangifera indica Secondary Metabolites and Their Synthetic Derivatives against SARS-CoV-2 M^pro and NS2B/NS3 (ZIKV and DENV-2)” (ACS Omega, 2024)
Several values for one entry are separate records, joined by “and”; a condition that tells them apart may be missing. Equal entries are not always repeated. Where two headings read alike, the source gives them in different places.

Columns and labels:
[1] = molecular target: T1, SARS-CoV-2 M^pro (Severe acute respiratory syndrome coronavirus 2, UniProt P0DTD1); experiment: SARS-CoV-2 M^pro inhibition assay (chromogenic peptide substrate); assay type: biochemical; settings: for inhibition at 200 µM: read-out: effect at 200 μM (%); for obs.: observation at the end of the M^pro experiment; for solubility during the biological testing: result in words, M^pro testing; for IC50: M^pro, substrate 200 μM
T1 construct: 30 μL of Mpro enzyme (Sigma-Aldrich) at a final concentration of 10 μg/mL; purchased Sigma-Aldrich
Method: Inhibitory effects against M^pro of all compounds were evaluated based on the experimental procedure provided by the manufacturer with some modifications.
[…] of chemicals dissolved in DMSO, with a final concentration of 200 μM, were put in triplicate to each well of a 96-well flat bottom microplate. After that, the plate was incubated for 10 min at room temperature with 30 μL of Mpro enzyme (Sigma-Aldrich) at a final concentration of 10 μg/mL diluted in buffer containing 25 mM HEPES (Sigma-Aldrich) and 0.2% of Tween-20 (Sigma-Aldrich). Furthermore, the chromogenic peptide substrate (Thr-Ser-Ala-Val-Leu-Gln-pNA, Sigma-Aldrich) was added in a volume of 10 μL to each well, at a final concentration of 200 μM and incubated for another 45 min at 37 °C. […] As directed by the manufacturer, with minor modifications, the experiment was carried out to ascertain the half-maximum inhibitory concentration (IC50) that may block the activity of the M^pro enzyme. […] The plate was then kept at room temperature for 10 min. Following this time interval, 10 μL of a 200 μM final concentration of chromogenic peptide substrate (Sigma-Aldrich) was added to each well, and the mixture was incubated for an additional 45 min at 37 °C.

[2] = Cytotoxicity against THP-1 cells (resazurin); assay type: cell-based; settings: human, THP-1 cells differentiated with PMA, read-out: CC50 ± SD (μM) THP-1
Method: (§1) In a 96-well flat bottom microplate, THP-1 cells (12 × 10^4 cells/well) were seeded with 180 μL of RPMI 1640 medium (Sigma-Aldrich) without phenol red supplemented with 10% FBS (Sigma-Aldrich), 2 mM L-glutamine (Gibco), […] (Sigma-Aldrich), 10 U/mL penicillin (Gibco), and 10 μg/mL streptomycin (Gibco) in the presence of 100 ng/mL of phorbol-12-myristate-13-acetate (PMA) (Sigma-Aldrich). The microplate was then incubated at 37 °C in a 5% CO2 atmosphere for 72 h. Vero cells ([…]) were seeded in 180 μL of RPMI 1640 media (Sigma-Aldrich), which was then supplemented with 10% FBS (Sigma-Aldrich), 10 U/mL penicillin (Gibco), and 10 μg/mL streptomycin (Gibco). The cells were then incubated for 24 h at 37 °C in a 5% CO2 environment. Each target chemical, diluted in RPMI-1640 media (Sigma-Aldrich) without FBS, at doses of 150, 50, 16.7, and 5.6 μM, was applied in 20 μL to each of the two cell lines. The positive and negative controls were 50 and 0.3% DMSO (Sigma-Aldrich), respectively. The plates were incubated in an environment containing 5% CO2 for 67 h at 37 °C. Next, 20 μL of resazurin (250 μg/mL) from Sigma-Aldrich was added, and the mixture was incubated at 37 °C for 5 h. The microplate was measured using a Tecan Model Infinite M200 spectrophotometer at 530 and 590 nm in wavelengths. Every experiment was run three times.[23],[24]

[3] = Cytotoxicity against Vero cells (resazurin); assay type: cell-based; settings: African green monkey, read-out: CC50 ± SD (μM) Vero
Method: as §1

[4] = molecular target: DENV-2 NS2B/NS3 (Dengue virus type 2, UniProt P29990); experiment: DENV-2 NS2B/NS3 protease fluorogenic substrate assay; settings: for inhibition at 100 µM: read-out: screening at 100 μM (%), DENV-2 NS2B/NS3, 100 μM compound
DENV-2 NS2B/NS3, sequence (P29990 1398-1437): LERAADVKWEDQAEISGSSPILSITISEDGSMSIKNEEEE
DENV-2 NS2B/NS3, sequence (P29990 1476-1653): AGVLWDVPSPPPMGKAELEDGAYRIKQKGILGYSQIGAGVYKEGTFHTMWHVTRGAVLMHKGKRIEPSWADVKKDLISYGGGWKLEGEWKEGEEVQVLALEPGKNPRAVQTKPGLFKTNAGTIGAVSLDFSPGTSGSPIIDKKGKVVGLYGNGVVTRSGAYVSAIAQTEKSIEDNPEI

[5] = molecular target: T2, ZIKV NS2B/NS3 (Zika virus, UniProt Q32ZE1); experiment: ZIKV NS2B/NS3 protease fluorogenic substrate assay; assay type: biochemical; settings: for inhibition at 20 µM: read-out: screening at 20 μM (%); for inhibition at 100 µM: read-out: screening at 100 μM (%); for mechanism of inhibition: ZIKV NS2B/NS3, IC50 at four substrate concentrations, Dixon plots
T2 construct: tested against the nonstructural protease of ZIKV (NS2B/NS3)
T2 sequence (Q32ZE1 1421-1460): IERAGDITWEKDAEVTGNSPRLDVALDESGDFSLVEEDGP
T2 sequence (Q32ZE1 1499-1676): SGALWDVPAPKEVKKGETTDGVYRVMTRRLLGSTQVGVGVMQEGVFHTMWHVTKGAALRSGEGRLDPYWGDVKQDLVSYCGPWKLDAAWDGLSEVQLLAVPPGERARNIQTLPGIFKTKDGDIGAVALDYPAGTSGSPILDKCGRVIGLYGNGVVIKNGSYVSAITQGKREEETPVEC

[6] = inhibitory percentage against M^pro at 200 μM, NA: no activity
[7] = ZIKV NS2B/NS3, substrate 100 μM, read-out: IC50
[8] = IC50 at substrate 50 μM, binding mechanism study, Boc-Gly-Arg-Arg-AMC 50 μM
[9] = IC50 at substrate 100 μM, binding mechanism study, Boc-Gly-Arg-Arg-AMC 100 μM
[10] = IC50 at substrate 150 μM, binding mechanism study, Boc-Gly-Arg-Arg-AMC 150 μM
[11] = IC50 at substrate 200 μM, binding mechanism study, Boc-Gly-Arg-Arg-AMC 200 μM

Row | Molecule | CC50 at 67 h [2] [µM] | CC50 at 67 h [3] [µM] | IC50 [1] [µM] | inhibition at 100 µM [4] [%] | inhibition at 20 µM ([5]; ZIKV NS2B/NS3, 20 μM compound) [%] | inhibition at 100 µM ([5]; ZIKV NS2B/NS3, 100 μM compound) [%] | IC50 [5, 7] [µM] | inhibition at 200 µM [1, 6] [%] | other results
1 | CC1(C)CC[C@]2(C)CC=C3[C@]4(C)CC[C@H]5C(C)(C)[C@@H](O)CC[C@]5(C)[C@H]4CC[C@@]3(C)[C@@H]2C1 [Compound 1, taraxerol] |  |  |  |  |  |  |  |  | effect at 200 μM (%) [1, 6]: 48.0%; inhibition at 200 µM [1]: 48%
2 | CC1(C)CC[C@]2(C)CC=C3[C@]4(C)CC[C@H]5C(C)(C)C(=O)CC[C@]5(C)[C@H]4CC[C@@]3(C)[C@@H]2C1 [Compound 1a, taraxerone] |  |  |  |  |  |  |  |  | effect at 200 μM (%) [1, 6]: 84.0%; obs. [1]: SP^#; inhibition at 200 µM [1]: 84%; solubility during the biological testing [1]: low solubility
3 | COC(=O)c1cc(O)c(O)c(O)c1 [Compound 2, methyl gallate] | 52.9 ± 19.2 | > 150 | 4.5 ± 1.8 |  |  |  |  |  | effect at 200 μM (%) [1, 6]: 68.0%; inhibition at 200 µM [1]: 68%
4 | CC(C)OC(=O)c1cc(O)c(O)c(O)c1 [Compound 2a] | 78.5 ± 8.1 | > 150 | 20.7 ± 8.2 | 48 ± 1 | 51 ± 3.4 | 98 ± 0.5 | 19.8 ± 0.5 | 78 | IC50 ([4]; IC50 (μM), DENV-2 NS2B/NS3, substrate 100 μM): > 100 µM
5 | CCCCCCCCCCCCCCOC(=O)c1cc(O)c(O)c(O)c1 [Compound 2b] |  |  |  | 21 ± 3 |  |  | 84.9 ± 9 |  | inhibition at 20 µM [5]: 64 ± 2.5%; inhibition at 100 µM [5]: 55 ± 2.3%
6 | C=CCCOC(=O)c1cc(O)c(O)c(O)c1 [Compound 2c] | 38.8 ± 4.4 | > 150 | 35.8 ± 4.5 | 18 ± 3 | 25 ± 2.6 | 48 ± 2.2 | > 100 | 80.4 | 
7 | C=CCOC(=O)c1cc(O)c(O)c(O)c1 [Compound 2d] | 28.5 ± 3.2 | > 150 | 12.4 ± 2.4 | 29 ± 1 | 25 ± 2.2 | 53 ± 1.7 | 92.5 ± 3.1 | 94.3 | 
8 | CC(C)CCOC(=O)c1cc(O)c(O)c(O)c1 [Compound 2e] | 47 ± 6.5 | > 150 | 2.6 ± 1 | > 50 | 72 ± 3.1 | 99 ± 0.2 | 13 ± 0.4 | 99.5 | 
9 | CC(C)=CCCC(C)=CCOC(=O)c1cc(O)c(O)c(O)c1 [Compound 2f] | 72.1 ± 7.3 | 48.4 ± 13.2 | 9.5 ± 1 | > 50 |  | 99 ± 0.4 | 2.7 ± 0.3 | 97 | IC50 [5, 8]: 3.2 µM; IC50 [5, 9]: 3.04 µM; IC50 [5, 10]: 3.6 µM and 3.61 µM; IC50 [5, 11]: 3.78 µM; screening at 20 μM (%) ([5]; ZIKV NS2B/NS3, 20 μM compound): 98 ± 1.1%; mechanism of inhibition [5]: noncompetitive; inhibition at 20 µM [5]: 98%
10 | CC(C)=CCCC(C)CCOC(=O)c1cc(O)c(O)c(O)c1 (centres unmarked) [Compound 2g] | 32.1 ± 3.4 | 82.1 ± 31.5 | 88.7 ± 11.6 | 28 ± 2 |  | 97 ± 1.1 | 1.9 ± 0.1 | 73.3 | IC50 [5, 8]: 2.93 µM; IC50 [5, 9]: 2.48 µM; IC50 [5, 10]: 2.96 µM; IC50 [5, 11]: 2.03 µM; screening at 20 μM (%) ([5]; ZIKV NS2B/NS3, 20 μM compound): 99 ± 0.4%; mechanism of inhibition [5]: noncompetitive; inhibition at 20 µM [5]: 99%
11 | O=C(OCCCc1ccccc1)c1cc(O)c(O)c(O)c1 [Compound 2h] |  |  |  | 20 ± 1 |  | 99 ± 0.2 | 4.8 ± 0.5 | 45.1 | screening at 20 μM (%) ([5]; ZIKV NS2B/NS3, 20 μM compound): 96 ± 0.4%; inhibition at 20 µM [5]: 96%
12 | C=CC(C)(CCC=C(C)C)OC(=O)c1cc(O)c(O)c(O)c1 (centres unmarked) [Compound 2i] | 98.9 ± 5 | > 150 | 4 ± 0.9 |  |  |  |  | 80 | 
13 | O=C(OCCc1ccccc1)c1cc(O)c(O)c(O)c1 [Compound 2j] | 22.9 ± 3.2 | > 150 |  | 22 ± 1 | 50 ± 3.8 | 82 ± 2.7 | 19.7 ± 2.1 | 60.8 | obs. [1]: SP^#; solubility during the biological testing [1]: solubility problems
14 | CCC=CCCOC(=O)c1cc(O)c(O)c(O)c1 [Compound 2k] |  |  |  | 28 ± 4 | 86 ± 0.8 | 100 ± 0.1 | 6.1 ± 0.6 | 41.9 | 
15 | COC(=O)c1cc(OC)c(OC)c(OC)c1 [Compound 2l, Methyl 3,4,5-trimethoxybenzoate] | > 150 | > 150 |  |  |  |  |  | 55.5 | obs. [1]: SP^#; solubility during the biological testing [1]: solubility problems
16 | O=c1c2ccccc2[se]n1-c1ccccc1 [Ebselen, reference compound] |  |  |  |  |  |  |  |  | effect (%) of positive control ([1]; Ebselen at 10 μM): 90%
17 | methyl 3,5-dihydroxy-4-methoxybenzoate [Compound 2m] |  |  |  |  |  |  |  |  | effect at 200 μM (%) [1, 6]: 44.2%
